Measurements published in patent US20140018350A1, “COMBINATION OF SULFONAMIDE COMPOUND AND TAFLUPROST” (priority 2012, published 2014).

Experiment: Intraocular pressure lowering effect in monkeys with normal intraocular pressure after instillation
Format: in vivo, Cynomolgus monkey
Conditions: male cynomolgus monkeys with normal intraocular pressure, six per group, 20 μL instillation into one eye, 0.0006 w/v % present compound solution and/or Taflotan 0.0015%
Text: In order to study the usefulness of a combination of the present compound with tafluprost, an intraocular pressure lowering effect when the present compound and tafluprost were concomitantly administered to experimental animals (monkeys with normal intraocular pressure) was examined.
An intraocular pressure lowering effect when the present compound and tafluprost were concomitantly administered was examined. As comparison subjects, intraocular pressure lowering effects when the present compound or tafluprost was administered singly were also examined. As a control, the base and physiological saline were administered.
Present compound solution: a 0.0006 w/v % present compound solution (instillation amount: 20 μL) […]
(2) Intraocular pressure was measured immediately before administering the test compound solution, and the measured intraocular pressure was defined as initial intraocular pressure. […]
(4) At 2, 4, 6 and 8 hours after instilling the present compound solution, one drop of the 0.4% oxybuprocaine hydrochloride eye drop was instilled into the eyes for which intraocular pressure was to be measured to effect local anesthesia, and then, intraocular pressure was measured. The intraocular pressure was measured in triplicate for each eye to obtain an average of three measurements, which is shown as the result. […]

Compound | Intraocular pressure lowering degree (change relative to average of control group) at 6 hours after instillation [mmHg]
CC(C)OC(=O)CCC/C=C\C[C@@H]1[C@@H](/C=C/C(F)(F)COc2ccccc2)[C@H](O)C[C@@H]1O [tafluprost, 1-methylethyl (5Z)-7-{(1R,2R,3R,5S)-2-[(1E)-3,3-difluoro-4-phenoxy-1-butenyl]-3,5-dihydroxycyclopentyl}-5-heptenoate] | 1.9
CC(C)OC(=O)CNc1cccc(CN(Cc2ccc(-n3cccn3)cc2)S(=O)(=O)c2cccnc2)n1 [Present compound, isopropyl(6-{[4-(pyrazol-1-yl)benzyl](pyridin-3-ylsulfonyl)aminomethyl}pyridin-2-ylamino)acetate] | 2.6
